One may read the IC50 as the midpoint of a concentration-inhibition curve.

The structures appear in SMILES notation.

The target of this assay is T1, recombinant human Estrogen Receptor alpha ligand binding domain, residues 307-554 (ER alpha-LBD (GST)) (Homo sapiens, UniProt P03372).
T1 construct: made in house
T1 sequence (P03372 307-554): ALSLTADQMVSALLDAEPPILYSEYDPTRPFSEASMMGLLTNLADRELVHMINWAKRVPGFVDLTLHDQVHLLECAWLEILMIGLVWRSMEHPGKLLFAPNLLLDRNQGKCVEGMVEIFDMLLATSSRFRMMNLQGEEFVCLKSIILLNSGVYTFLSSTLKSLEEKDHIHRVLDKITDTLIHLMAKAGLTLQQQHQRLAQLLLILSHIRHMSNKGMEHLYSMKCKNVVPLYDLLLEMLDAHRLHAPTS
The assay can be described thus: ERα binding assay (LanthaScreen TR-FRET competition). The note with it: TR-FRET competition with Fluormone ES2 tracer, 4 hours at room temperature; single experiment or average of two or more. Background: TR-FRET usually uses a lanthanide donor and a delayed reading to cut background.
For the molecule `Cc1ncsc1-c1ccc(CNC(=O)[C@@H]2C[C@@H](O)CN2C(=O)[C@@H](NC(=O)COCCO[C@@H](C)[C@H](C)OCCOc2cc(F)c([C@@H]3c4[nH]c5ccccc5c4C[C@@H](C)N3CC(C)(C)F)c(F)c2)C(C)(C)C)cc1` [Example 82, (2S,4R)-1-((2S,10S,11S)-2-(tert-butyl)-14-(3,5-difluoro-4-((1R,3R)-2-(2-fluoro-2-methylpropyl)-3-methyl-2,3,4,9-tetrahydro-1H-pyrido[3,4-b]indol-1-yl)phenoxy)-10,11-dimethyl-4-oxo-6,9,12-trioxa-3-azatetradecanoyl)-4-hydroxy-N-(4-(4-methylthiazol-5-yl)benzyl)pyrrolidine-2-carboxamide], the IC50 stood at 0.9 nM.
The figure for `Cc1ncsc1-c1ccc(CNC(=O)[C@@H]2C[C@@H](O)CN2C(=O)[C@@H](NC(=O)COc2ccc(OCCNC(=O)/C=C/c3cc(F)c([C@@H]4c5[nH]c6ccccc6c5C[C@@H](C)N4CC(C)(C)F)c(F)c3)cc2)C(C)(C)C)cc1` [Example 61, (2S,4R)-1-((S)-2-(2-(4-(2-((E)-3-(3,5-difluoro-4-((1R,3R)-2-(2-fluoro-2-methylpropyl)-3-methyl-2,3,4,9-tetrahydro-1H-pyrido[3,4-b]indol-1-yl)phenyl)acrylamido)ethoxy)phenoxy)acetamido)-3,3-dimethylbutanoyl)-4-hydroxy-N-(4-(4-methylthiazol-5-yl)benzyl)pyrrolidine-2-carboxamide, Trifluoroacetic Acid] is 1 nM.
The result for `Cc1ncsc1-c1ccc(CNC(=O)[C@@H]2C[C@@H](O)CN2C(=O)[C@@H](NC(=O)COCCOCCOCCOCC(=O)Nc2cc(F)c([C@@H]3c4[nH]c5ccccc5c4C[C@@H](C)N3CC(C)(C)F)c(F)c2)C(C)(C)C)cc1` [Example 68, N1-(3,5-difluoro-4-((1R,3R)-2-(2-fluoro-2-methylpropyl)-3-methyl-2,3,4,9-tetrahydro-1H-pyrido[3,4-b]indol-1-yl)phenyl)-N14-((S)-1-((2S,4R)-4-hydroxy-2-((4-(4-methylthiazol-5-yl)benzyl)carbamoyl)pyrrolidin-1-yl)-3,3-dimethyl-1-oxobutan-2-yl)-3,6,9,12-tetraoxatetradecanediamide] reads 1 nM.
Turning to `Cc1ncsc1-c1ccc(CNC(=O)[C@@H]2C[C@@H](O)CN2C(=O)[C@@H](NC(=O)COCCCCCOc2cc(F)c([C@@H]3c4[nH]c5ccccc5c4C[C@@H](C)N3CC(F)(F)F)c(F)c2)C(C)(C)C)cc1` [Example 96], the IC50 stood at 0.6 nM.
The figure for `Cc1ncsc1-c1ccc(CNC(=O)[C@@H]2C[C@@H](O)CN2C(=O)[C@@H](NC(=O)COCc2ccc(COc3cc(F)c([C@@H]4c5[nH]c6ccccc6c5C[C@@H](C)N4CC(C)(C)F)c(F)c3)nc2)C(C)(C)C)cc1` [Example 85, (2S,4R)-1-((S)-2-(2-((6-((3,5-difluoro-4-((1R,3R)-2-(2-fluoro-2-methylpropyl)-3-methyl-2,3,4,9-tetrahydro-1H-pyrido[3,4-b]indol-1-yl)phenoxy)methyl)pyridin-3-yl)methoxy)acetamido)-3,3-dimethylbutanoyl)-4-hydroxy-N-(4-(4-methylthiazol-5-yl)benzyl)pyrrolidine-2-carboxamide] is 0.9 nM.
Consider `Cc1ncsc1-c1ccc(CNC(=O)[C@@H]2C[C@@H](O)CN2C(=O)[C@@H](NC(=O)COCCOCCOCC(=O)Nc2ccc([C@@H]3c4[nH]c5ccccc5c4C[C@@H](C)N3CC(C)(C)F)cc2)C(C)(C)C)cc1` [Example 57, (2S,4R)-1-((S)-2-(tert-butyl)-14-((4-((1R,3R)-2-(2-fluoro-2-methylpropyl)-3-methyl-2,3,4,9-tetrahydro-1H-pyrido[3,4-b]indol-1-yl)phenyl)amino)-4,14-dioxo-6,9,12-trioxa-3-azatetradecanoyl)-4-hydroxy-N-(4-(4-methylthiazol-5-yl)benzyl)pyrrolidine-2-carboxamide, Trifluoroacetic Acid], for which the IC50 stood at 8.8 nM.
The figure for `Cc1ncsc1-c1ccc(CNC(=O)[C@@H]2C[C@@H](O)CN2C(=O)[C@@H](NC(=O)COCCCCOCCCOc2cc(F)c([C@@H]3c4[nH]c5ccccc5c4C[C@@H](C)N3CC(C)(C)F)c(F)c2)C(C)(C)C)cc1` [Example 93] is 0.7 nM.
Turning to `Cc1ncsc1-c1ccc(CNC(=O)[C@@H]2C[C@@H](O)CN2C(=O)[C@@H](NC(=O)COCc2ccc(OCCOc3cc(F)c([C@@H]4c5[nH]c6ccccc6c5C[C@@H](C)N4CC(C)(C)F)c(F)c3)cc2)C(C)(C)C)cc1` [Example 4, (2S,4R)-1-((S)-2-(2-((4-(2-(3,5-Difluoro-4-((1R,3R)-2-(2-fluoro-2-methylpropyl)-3-methyl-2,3,4,9-tetrahydro-1H-pyrido[3,4-b]indol-1-yl)phenoxy)ethoxy)benzyl)oxy)acetamido)-3,3-dimethylbutanoyl)-4-hydroxy-N-(4-(4-methylthiazol-5-yl)benzyl)pyrrolidine-2-carboxamide], the IC50 is 0.8 nM.
The figure for `Cc1ncsc1-c1ccc(CNC(=O)[C@@H]2C[C@@H](O)CN2C(=O)[C@@H](NC(=O)COCCOCCOCCOc2cc(F)c([C@@H]3c4[nH]c5ccccc5c4C[C@@H](C)N3CC3(F)CC3)c(F)c2)C(C)(C)C)cc1` [Example 77, (2S,4R)-1-((S)-2-(tert-Butyl)-14-(3,5-difluoro-4-((1R,3R)-2-((1-fluorocyclopropyl)methyl)-3-methyl-2,3,4,9-tetrahydro-1H-pyrido[3,4-b]indol-1-yl)phenoxy)-4-oxo-6,9,12-trioxa-3-azatetradecanoyl)-4-hydroxy-N-(4-(4-methylthiazol-5-yl)benzyl)pyrrolidine-2-carboxamide] is 2.6 nM; for `Cc1ncsc1-c1ccc(CNC(=O)[C@@H]2C[C@@H](O)CN2C(=O)[C@@H](NC(=O)c2ccc(N3CCN(CCNC(=O)/C=C/c4cc(F)c([C@@H]5c6[nH]c7ccccc7c6C[C@@H](C)N5CC(C)(C)F)c(F)c4)CC3)cc2)C(C)(C)C)cc1` [Example 67, (2S,4R)-1-((S)-2-(4-(4-(2-((E)-3-(3,5-difluoro-4-((1R,3R)-2-(2-fluoro-2-methylpropyl)-3-methyl-2,3,4,9-tetrahydro-1H-pyrido[3,4-b]indol-1-yl)phenyl)acrylamido)ethyl)piperazin-1-yl)benzamido)-3,3-dimethylbutanoyl)-4-hydroxy-N-(4-(4-methylthiazol-5-yl)benzyl)pyrrolidine-2-carboxamide, Trifluoroacetic Acid] it is 1.1 nM; for `Cc1ncsc1-c1ccc(CNC(=O)[C@@H]2C[C@@H](O)CN2C(=O)[C@@H](NC(=O)COCCCOCCOc2cc(F)c([C@@H]3c4[nH]c5ccccc5c4C[C@@H](C)N3CC(F)(F)F)c(F)c2)C(C)(C)C)cc1` [Example 94, (2S,4R)-1-((S)-2-(2-(3-(2-(3,5-Difluoro-4-((1R,3R)-3-methyl-2-(2,2,2-trifluoroethyl)-2,3,4,9-tetrahydro-1H-pyrido[3,4-b]indol-1-yl)phenoxy)ethoxy)propoxy)acetamido)-3,3-dimethylbutanoyl)-4-hydroxy-N-(4-(4-methylthiazol-5-yl)benzyl)pyrrolidine-2-carboxamide] it is 0.9 nM.
As to `Cc1ncsc1-c1ccc(CNC(=O)[C@@H]2C[C@@H](O)CN2C(=O)[C@@H](NC(=O)CCCCNC(=O)/C=C/c2cc(F)c([C@@H]3c4[nH]c5ccccc5c4C[C@@H](C)N3CC(C)(C)F)c(F)c2)C(C)(C)C)cc1` [Example 60, (2S,4R)-1-((S)-2-(5-((E)-3-(3,5-difluoro-4-((1R,3R)-2-(2-fluoro-2-methylpropyl)-3-methyl-2,3,4,9-tetrahydro-1H-pyrido[3,4-b]indol-1-yl)phenyl)acrylamido)pentanamido)-3,3-dimethylbutanoyl)-4-hydroxy-N-(4-(4-methylthiazol-5-yl)benzyl)pyrrolidine-2-carboxamide, Trifluoroacetic Acid], the IC50 was 0.7 nM.
The result for `Cc1ncsc1-c1ccc(CNC(=O)[C@@H]2C[C@@H](O)CN2C(=O)[C@@H](NC(=O)c2cnn(CCOCCNC(=O)/C=C/c3cc(F)c([C@@H]4c5[nH]c6ccccc6c5C[C@@H](C)N4CC(C)(C)F)c(F)c3)c2)C(C)(C)C)cc1` [Example 64, 1-(2-(2-((E)-3-(3,5-difluoro-4-((1R,3R)-2-(2-fluoro-2-methylpropyl)-3-methyl-2,3,4,9-tetrahydro-1H-pyrido[3,4-b]indol-1-yl)phenyl)acrylamido)ethoxy)ethyl)-N—((S)-1-((2S,4R)-4-hydroxy-2-((4-(4-methylthiazol-5-yl)benzyl)carbamoyl)pyrrolidin-5-yl)-3,3-dimethyl-1-oxobutan-2-yl)-1H-pyrazole-4-carboxamide, Trifluoroacetic Acid] reads 0.4 nM; that for `Cc1ncsc1-c1ccc(CNC(=O)[C@@H]2C[C@@H](O)CN2C(=O)[C@@H](NC(=O)COCc2cccc(CCCOc3cc(F)c([C@@H]4c5[nH]c6ccccc6c5C[C@@H](C)N4CC(C)(C)F)c(F)c3)c2)C(C)(C)C)cc1` [Example 74, (2S,4R)-1-((S)-2-(2-((3-(3-(3,5-Difluoro-4-((1R,3R)-2-(2-fluoro-2-methylpropyl)-3-methyl-2,3,4,9-tetrahydro-1H-pyrido[3,4-b]indol-1-yl)phenoxy)propyl)benzyl)oxy)acetamido)-3,3-dimethylbutanoyl)-4-hydroxy-N-(4-(4-methylthiazol-5-yl)benzyl)pyrrolidine-2-carboxamide], 0.8 nM.
The result for `Cc1ncsc1-c1ccc(CNC(=O)[C@@H]2C[C@@H](O)CN2C(=O)[C@@H](NC(=O)COCCOCCOCCOCC(=O)Nc2ccc([C@@H]3c4[nH]c5ccccc5c4C[C@@H](C)N3CC(C)(C)F)cc2)C(C)(C)C)cc1` [Example 55, N^1-(4-((1R,3R)-2-(2-fluoro-2-methylpropyl)-3-methyl-2,3,4,9-tetrahydro-1H-pyrido[3,4-b]indol-1-yl)phenyl)-N^14—((S)-1-((2S,4R)-4-hydroxy-2-((4-(4-methylthiazol-5-yl)benzyl)carbamoyl)pyrrolidin-1-yl)-3,3-dimethyl-1-oxobutan-2-yl)-3,6,9,12-tetraoxatetradecanediamide, Trifluoroacetic Acid] reads 12 nM.

Source of the values: US10519152B2, “Compounds and their use in treating cancer” (AstraZeneca AB, priority 2017, dated 2019).
